Results published in US20080213376A1, “Medicament that is Intended for Oral Administration, Comprising a Cyclooxygenase-2 Inhibitor, and Preparation Method Thereof” (VETOQUINOL, priority 2005, published 2008).
Converted amounts (≈) assume the structure as drawn.

Experiment: Solubility by HPLC in approximately 0.1N HCl medium
Format: physicochemical
Conditions: simulated gastric fluid, thermodynamic from solid, HPLC technique
Protocol: By way of indication, the solubility S0 of the cimicoxib powder alone and the solubility S2 of the particle agglomerate according to this second example of the invention were measured by the HPLC (high performance liquid chromatography) technique and in an approximately 0.1N HCl medium, with the following results (solubilities in milligrams/liter):
By way of indication, the solubility S5 of this particle agglomerate according to this fifth example of the invention was compared to the solubility S0 of the cimicoxib powder alone by the HPLC technique and in an approximately 0.1N HCl medium, with the following results (milligrams/liter): […]

COc1ccc(-c2c(Cl)ncn2-c2ccc(S(N)(=O)=O)cc2)cc1F [cimicoxib powder alone, cimicoxib]
solubility: 3.1 µg/mL (≈ 8.12 µM)
